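Dose response: 5 concentrations. Exposure: 48 h. Format: 96-well plates. Endpoint: linear interpolation; highest concentration if not reached. GI50 is the concentration that inhibits growth by half.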 The source made the active and inactive calls. Rule as the data show it: active = GI50 up to about 1.1 µM and inactive = higher.
Tests used:
Experiment in all cases: NCI tumour cell line growth inhibition, 48 h
Malme-3M = tested on: Malme-3M
DMS-273 = tested on: DMS-273
786-0 = tested on: 786-0
DMS-114 = tested on: DMS-114
HCC 2998 = tested on: HCC 2998
UACC-62 = tested on: UACC-62
HOP-18 = tested on: HOP-18
M19-MEL = tested on: M19-MEL
SK-MEL-2 = tested on: SK-MEL-2
SF-268 = tested on: SF-268
RXF 631 = tested on: RXF 631
KM12 = tested on: KM12
COLO 205 = tested on: COLO 205
K562 = tested on: K562
HCT-15 = tested on: HCT-15
RXF 393 = tested on: RXF 393
HOP-62 = tested on: HOP-62
HCT-116 = tested on: HCT-116
OVCAR-8 = tested on: OVCAR-8
TK-10 = tested on: TK-10
ACHN = tested on: ACHN
SR = tested on: SR
SF-539 = tested on: SF-539
HL-60 = tested on: HL-60
UACC-257 = tested on: UACC-257
MOLT-4 = tested on: MOLT-4
KM-20L2 = tested on: KM-20L2
SNB-75 = tested on: SNB-75
CCRF-CEM = tested on: CCRF-CEM
RPMI-8226 = tested on: RPMI-8226
M14 = tested on: M14
DLD-1 = tested on: DLD-1
NCI-H522 = tested on: NCI-H522
A549 = tested on: A549
SNB-78 = tested on: SNB-78
LXFL 529 = tested on: LXFL 529
UO-31 = tested on: UO-31
SK-OV-3 = tested on: SK-OV-3
SNB-19 = tested on: SNB-19
OVCAR-4 = tested on: OVCAR-4
SN12C = tested on: SN12C
U-251 = tested on: U-251
SW-620 = tested on: SW-620
NCI-H226 = tested on: NCI-H226
CAKI-1 = tested on: CAKI-1
SK-MEL-28 = tested on: SK-MEL-28
HT-29 = tested on: HT-29
XF498 = tested on: XF498
SK-MEL-5 = tested on: SK-MEL-5
IGROV-1 = tested on: IGROV-1
NCI-H23 = tested on: NCI-H23
LOX IMVI = tested on: LOX IMVI
EKVX = tested on: EKVX
SF-295 = tested on: SF-295
A498 = tested on: A498
HOP-92 = tested on: HOP-92
NCI-H460 = tested on: NCI-H460
OVCAR-3 = tested on: OVCAR-3
OVCAR-5 = tested on: OVCAR-5

In the case of `CC12OC3(O)C4C5CC(C6C5C3C61)C42` (stereo not drawn), the GI50 (Malme-3M) is reported as > 100 µM (inactive), the GI50 (DMS-273) is reported as > 100 µM (inactive) and the GI50 (786-0) is reported as 38.3 µM (inactive). For the same compound, the GI50 (DMS-114) was > 100 µM (inactive), the GI50 (HCC 2998) was > 100 µM (inactive) and the GI50 (UACC-62) was > 100 µM (inactive). The GI50 (HOP-18) was > 100 µM (inactive), the GI50 (M19-MEL) was > 100 µM (inactive) and the GI50 (SK-MEL-2) was > 100 µM (inactive). The GI50 (SF-268) was > 100 µM (inactive), the GI50 (RXF 631) was > 100 µM (inactive) and the GI50 (KM12) was > 100 µM (inactive). For the same compound, the GI50 (COLO 205) was > 100 µM (inactive), the GI50 (K562) was > 100 µM (inactive) and the GI50 (HCT-15) was over 100 µM. For the same compound, the GI50 (RXF 393) was > 100 µM (inactive), the GI50 (HOP-62) was > 100 µM (inactive) and the GI50 (HCT-116) was > 100 µM (inactive). The GI50 (OVCAR-8) was > 100 µM (inactive), the GI50 (TK-10) was > 100 µM (inactive) and the GI50 (ACHN) was > 100 µM (inactive). The GI50 (SR) was > 100 µM (inactive), the GI50 (SF-539) was > 100 µM (inactive) and the GI50 (HL-60) was > 100 µM (inactive). The GI50 (UACC-257) was > 100 µM (inactive), the GI50 (MOLT-4) was > 100 µM (inactive) and the GI50 (KM-20L2) was > 100 µM (inactive). For the same compound, the GI50 (SNB-75) was > 100 µM (inactive), the GI50 (CCRF-CEM) was > 100 µM (inactive) and the GI50 (RPMI-8226) was > 100 µM (inactive). For the same compound, the GI50 (M14) was 29.4 µM (inactive), the GI50 (DLD-1) was > 100 µM (inactive) and the GI50 (NCI-H522) was > 100 µM (inactive). For the same compound, the GI50 (A549) was > 100 µM (inactive), the GI50 (SNB-78) was > 100 µM (inactive) and the GI50 (LXFL 529) was 22.9 µM (inactive). The GI50 (UO-31) was > 100 µM (inactive), the GI50 (SK-OV-3) was > 100 µM (inactive) and the GI50 (SNB-19) was > 100 µM (inactive). The GI50 (OVCAR-4) was > 100 µM (inactive), the GI50 (SN12C) was > 100 µM (inactive) and the GI50 (U-251) was > 100 µM (inactive). For the same compound, the GI50 (SW-620) was > 100 µM (inactive), the GI50 (NCI-H226) was > 100 µM (inactive) and the GI50 (CAKI-1) was > 100 µM (inactive). The GI50 (SK-MEL-28) was > 100 µM (inactive).

With `C/C(=N\NS(=O)(=O)c1ccc(C)cc1)C(CN1CCOCC1)C(c1ccccc1)c1c(O)c2ccccc2oc1=O` (stereo not drawn) the GI50 (Malme-3M) was > 100 µM (inactive), the GI50 (HT-29) was > 100 µM (inactive) and the GI50 (786-0) was > 100 µM (inactive). The GI50 (UACC-62) was > 100 µM (inactive), the GI50 (HOP-18) was > 100 µM (inactive) and the GI50 (M19-MEL) was 99.5 µM (inactive). The GI50 (SK-MEL-2) was > 100 µM (inactive), the GI50 (SF-268) was > 100 µM (inactive) and the GI50 (RXF 631) was > 100 µM (inactive). For the same compound, the GI50 (XF498) was > 100 µM (inactive), the GI50 (KM12) was > 100 µM (inactive) and the GI50 (COLO 205) was 40.8 µM (inactive). For the same compound, the GI50 (K562) was 53.2 µM (inactive), the GI50 (HCT-15) was over 100 µM and the GI50 (RXF 393) was 68.2 µM (inactive). For the same compound, the GI50 (SK-MEL-5) was > 100 µM (inactive), the GI50 (HOP-62) was > 100 µM (inactive) and the GI50 (HCT-116) was > 100 µM (inactive). For the same compound, the GI50 (OVCAR-8) was > 100 µM (inactive), the GI50 (TK-10) was > 100 µM (inactive) and the GI50 (IGROV-1) was > 100 µM (inactive). For the same compound, the GI50 (ACHN) was > 100 µM (inactive), the GI50 (SR) was 19.7 µM (inactive) and the GI50 (SF-539) was > 100 µM (inactive). For the same compound, the GI50 (NCI-H23) was > 100 µM (inactive), the GI50 (LOX IMVI) was > 100 µM (inactive) and the GI50 (HL-60) was 30.8 µM (inactive). For the same compound, the GI50 (EKVX) was > 100 µM (inactive), the GI50 (UACC-257) was > 100 µM (inactive) and the GI50 (SF-295) was 83 µM (inactive). The GI50 (KM-20L2) was > 100 µM (inactive), the GI50 (SNB-75) was > 100 µM (inactive) and the GI50 (A498) was > 100 µM (inactive). The GI50 (CCRF-CEM) was 37.5 µM (inactive), the GI50 (HOP-92) was 59.8 µM (inactive) and the GI50 (RPMI-8226) was 35.2 µM (inactive). The GI50 (M14) was > 100 µM (inactive), the GI50 (DLD-1) was > 100 µM (inactive) and the GI50 (NCI-H522) was 59.8 µM (inactive). For the same compound, the GI50 (NCI-H460) was > 100 µM (inactive), the GI50 (A549) was > 100 µM (inactive) and the GI50 (SNB-78) was > 100 µM (inactive). The GI50 (LXFL 529) was > 100 µM (inactive), the GI50 (UO-31) was 72.3 µM (inactive) and the GI50 (OVCAR-3) was 89.5 µM (inactive). For the same compound, the GI50 (SK-OV-3) was > 100 µM (inactive), the GI50 (SNB-19) was > 100 µM (inactive) and the GI50 (OVCAR-4) was > 100 µM (inactive). For the same compound, the GI50 (SN12C) was > 100 µM (inactive), the GI50 (U-251) was > 100 µM (inactive) and the GI50 (SW-620) was 30.6 µM (inactive). For the same compound, the GI50 (NCI-H226) was > 100 µM (inactive), the GI50 (CAKI-1) was > 100 µM (inactive) and the GI50 (OVCAR-5) was > 100 µM (inactive).

For `Cc1ccc(CCNC(=S)SCC(NC(=O)CCC(N)C(=O)O)C(=O)NCC(=O)O)cc1` (stereo not drawn), the GI50 (Malme-3M) was 2.01 µM (inactive), the GI50 (DMS-273) was 0.414 µM (active) and the GI50 (HT-29) was 1.46 µM (inactive). For the same compound, the GI50 (786-0) was 0.385 µM (active), the GI50 (DMS-114) was 0.873 µM (active) and the GI50 (HCC 2998) was 2.04 µM (inactive). The GI50 (UACC-62) was 1.41 µM (inactive), the GI50 (HOP-18) was 2.52 µM (inactive) and the GI50 (M19-MEL) was 1.7 µM (inactive). For the same compound, the GI50 (SK-MEL-2) was 0.385 µM (active), the GI50 (SF-268) was 2.7 µM (inactive) and the GI50 (RXF 631) was 2.2 µM (inactive). The GI50 (XF498) was 1.49 µM (inactive), the GI50 (KM12) was 0.533 µM (active) and the GI50 (COLO 205) was 2.51 µM (inactive). For the same compound, the GI50 (K562) was 0.398 µM (active), the GI50 (HCT-15) was 1.43 µM and the GI50 (RXF 393) was 0.718 µM (active). The GI50 (SK-MEL-5) was 1.73 µM (inactive), the GI50 (HOP-62) was 2.96 µM (inactive) and the GI50 (HCT-116) was 2.17 µM (inactive). For the same compound, the GI50 (OVCAR-8) was 2 µM (inactive), the GI50 (TK-10) was 2.84 µM (inactive) and the GI50 (IGROV-1) was 2.11 µM (inactive). For the same compound, the GI50 (ACHN) was 2.02 µM (inactive), the GI50 (SR) was 2.13 µM (inactive) and the GI50 (SF-539) was 1.48 µM (inactive). For the same compound, the GI50 (NCI-H23) was 2.6 µM (inactive), the GI50 (LOX IMVI) was 0.388 µM (active) and the GI50 (HL-60) was 0.51 µM (active). The GI50 (EKVX) was 6.19 µM (inactive), the GI50 (UACC-257) was 1.99 µM (inactive) and the GI50 (MOLT-4) was 1.23 µM (inactive). The GI50 (SF-295) was 2.81 µM (inactive), the GI50 (KM-20L2) was 2.12 µM (inactive) and the GI50 (SNB-75) was 0.435 µM (active). For the same compound, the GI50 (A498) was 2.03 µM (inactive), the GI50 (CCRF-CEM) was 0.442 µM (active) and the GI50 (HOP-92) was 1.17 µM (inactive). The GI50 (RPMI-8226) was 0.288 µM (active), the GI50 (M14) was 1.22 µM (inactive) and the GI50 (DLD-1) was 0.764 µM (active). For the same compound, the GI50 (NCI-H522) was 0.327 µM (active), the GI50 (NCI-H460) was 2.61 µM (inactive) and the GI50 (A549) was 3.57 µM (inactive). The GI50 (LXFL 529) was 0.75 µM (active), the GI50 (UO-31) was 1.12 µM (inactive) and the GI50 (OVCAR-3) was 2.17 µM (inactive). The GI50 (SK-OV-3) was 7.4 µM (inactive), the GI50 (SNB-19) was 2.17 µM (inactive) and the GI50 (OVCAR-4) was 2.99 µM (inactive). For the same compound, the GI50 (SN12C) was 1.76 µM (inactive), the GI50 (U-251) was 1.87 µM (inactive) and the GI50 (SW-620) was 0.767 µM (active). For the same compound, the GI50 (NCI-H226) was 2.26 µM (inactive), the GI50 (CAKI-1) was 1.41 µM (inactive) and the GI50 (SK-MEL-28) was 2.75 µM (inactive). The GI50 (OVCAR-5) was 2.51 µM (inactive).
